The test deals with D-xylose isomerase (Streptomyces pseudogriseolus, UniProt P24300). Description: competitive inhibition of D-xylose isomerization. It is filed as biochemical.

Each structure is given as a SMILES string.

Sequence of D-xylose isomerase (P24300 2-388): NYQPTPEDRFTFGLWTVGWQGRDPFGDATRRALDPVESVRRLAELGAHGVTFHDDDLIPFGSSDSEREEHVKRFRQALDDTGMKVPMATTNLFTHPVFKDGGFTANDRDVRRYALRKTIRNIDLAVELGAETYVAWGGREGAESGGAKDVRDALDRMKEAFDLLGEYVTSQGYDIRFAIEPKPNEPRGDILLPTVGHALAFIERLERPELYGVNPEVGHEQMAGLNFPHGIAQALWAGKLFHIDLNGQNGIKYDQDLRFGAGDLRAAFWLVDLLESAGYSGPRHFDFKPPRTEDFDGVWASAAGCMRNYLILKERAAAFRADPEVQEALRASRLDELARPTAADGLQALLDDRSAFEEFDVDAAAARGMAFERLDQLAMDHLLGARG

As for `O=C[C@H](O)CO` [DGA, D-glyceraldehyde], the inhibitory constant (Ki) amounted to 3 mM.

For the origin of these results see publication PMC3217161 (2011).
